For five molecules, IC50 results are on record in patent publication US20250388589A1, “TRICYCLIC HETEROCYCLIC DERIVATIVES, COMPOSITIONS AND USES THEREOF” (Danatlas Pharmaceuticals Co., Ltd., priority 2022, published 2025).

Assay [1] deals with hPARG (C-terminal His6-tag) (Homo sapiens (Human), UniProt Q86W56). The assay is described as follows: PARG Enzymatic Activity Assay (HTRF). The assay is classed as biochemical. The following applies: hPARG 65 pM final, biotinylated-NAD ribosylated PARP1 8 nM final. The procedure, abridged:
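E. coli-expressed enzyme (65 pM final) preincubated 60 min RT with compounds (10-point 4-fold dilution, duplicate) in 50 mM Tris pH 7.4, 3 mM EDTA, 1 mM DTT, 50 mM KCl, 0.01% Tween 20. Biotinylated-NAD ribosylated PARP1 substrate (8 nM final) reacted 10 min RT; Eu-streptavidin/anti-6HIS-XL665 HTRF read 665/620 nm after 60 min. IC50 from 4-parameter Hill fit.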

For assay [2], the system named is Kuramochi cell line. The assay is described as follows: Cell Viability Assay (Cell Titer-Glo, 7 days). Type of assay: cell-based. The note with it: 168 h, Kuramochi cells, 7 days incubation, read-out: PARG Cell viability (IC50). Put shortly: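 Kuramochi cells in RPMI with 10% FBS, seeded at 400 cells/well, were treated with a 9-point 3-fold dilution series in duplicate for 7 days at 37 °C, 5% CO2. Viability by CellTiter-Glo luminescence, normalised to DMSO and medium-only controls; IC50 from 4-parameter Hill fit.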

Chain of hPARG (C-terminal His6-tag) (Q86W56 whole entry): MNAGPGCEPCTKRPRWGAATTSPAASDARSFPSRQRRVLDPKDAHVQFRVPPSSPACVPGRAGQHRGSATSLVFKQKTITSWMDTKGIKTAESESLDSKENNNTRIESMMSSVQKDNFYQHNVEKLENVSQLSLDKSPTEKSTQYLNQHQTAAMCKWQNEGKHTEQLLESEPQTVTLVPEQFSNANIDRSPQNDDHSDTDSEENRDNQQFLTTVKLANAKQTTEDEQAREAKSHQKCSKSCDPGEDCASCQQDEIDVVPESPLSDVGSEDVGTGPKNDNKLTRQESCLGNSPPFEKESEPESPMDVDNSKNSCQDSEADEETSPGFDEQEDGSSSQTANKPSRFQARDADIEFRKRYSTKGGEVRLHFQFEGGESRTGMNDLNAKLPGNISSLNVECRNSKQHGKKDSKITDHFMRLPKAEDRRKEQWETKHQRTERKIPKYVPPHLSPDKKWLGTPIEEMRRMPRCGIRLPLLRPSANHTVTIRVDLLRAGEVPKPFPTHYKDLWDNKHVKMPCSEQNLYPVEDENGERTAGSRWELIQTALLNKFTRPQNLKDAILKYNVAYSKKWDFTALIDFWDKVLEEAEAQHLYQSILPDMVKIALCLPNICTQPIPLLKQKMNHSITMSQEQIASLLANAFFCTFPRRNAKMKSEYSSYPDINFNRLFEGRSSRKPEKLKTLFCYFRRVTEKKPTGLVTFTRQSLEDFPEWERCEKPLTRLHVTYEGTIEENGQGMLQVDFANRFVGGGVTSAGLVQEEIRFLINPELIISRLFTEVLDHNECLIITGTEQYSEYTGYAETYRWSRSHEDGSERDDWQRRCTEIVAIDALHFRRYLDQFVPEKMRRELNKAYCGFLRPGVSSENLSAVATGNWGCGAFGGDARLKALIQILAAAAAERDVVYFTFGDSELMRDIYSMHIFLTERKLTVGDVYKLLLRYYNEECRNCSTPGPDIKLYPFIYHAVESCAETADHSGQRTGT

As for `CCN(CC)C1CCN(c2ncnc3c2c2ccc(S(=O)(=O)NC4(C#N)CC4)cc2n3-c2nnc(C(F)F)s2)C[C@@H]1F` (stereo partly drawn) [Example 206, N-(1-Cyanocyclopropyl)-4-((3S)-4-(diethylamino)-3-fluoropiperidin-1-yl)-9-(5-(difluoromethyl)-1,3,4-thiadiazol-2-yl)-9H-pyrimido[4,5-b]indole-7-sulfonamide], the half-inhibitory concentration (IC50) in assay [1] and in assay [2] was under 100 nM in each case.
In the case of `N#CC1(NS(=O)(=O)c2ccc3c4c(N5CCC(N6CCCC6)[C@@H](F)C5)ncnc4n(-c4nnc(C(F)F)s4)c3c2)CC1` (stereo partly drawn) [Example 207, N-(1-Cyanocyclopropyl)-9-(5-(difluoromethyl)-1,3,4-thiadiazol-2-yl)-4-((3S)-3-fluoro-4-(pyrrolidin-1-yl)piperidin-1-yl)-9H-pyrimido[4,5-b]indole-7-sulfonamide], the IC50 in assay [1] and in assay [2] was under 100 nM each time.
Turning to `N#CC1(NS(=O)(=O)c2ccc3c4c(N5CCC(N6CCC6)[C@@H](F)C5)ncnc4n(-c4nnc(C(F)F)s4)c3c2)CC1` (stereo partly drawn) [Example 208, 4-((3S)-4-(Azetidin-1-yl)-3-fluoropiperidin-1-yl)-N-(1-cyanocyclopropyl)-9-(5-(difluoromethyl)-1,3,4-thiadiazol-2-yl)-9H-pyrimido[4,5-b]indole-7-sulfonamide], the IC50 in assay [1] and in assay [2] was under 100 nM in each case.
With `N#CC1(NS(=O)(=O)c2ccc3c4c(N5CCC(N6CCOCC6)[C@@H](F)C5)ncnc4n(-c4nnc(C(F)F)s4)c3c2)CC1` (stereo partly drawn) [Example 209, N-(1-Cyanocyclopropyl)-9-(5-(difluoromethyl)-1,3,4-thiadiazol-2-yl)-4-((3S)-3-fluoro-4-morpholinopiperidin-1-yl)-9H-pyrimido[4,5-b]indole-7-sulfonamide], the half-inhibitory concentration (IC50) in assay [1] and in assay [2] was under 100 nM throughout.
Turning to `N#CC1(NS(=O)(=O)c2ccc3c4c(N5C6CCC5COC6)ncnc4n(-c4nnc(C(F)F)s4)c3c2)CC1` [Example 210, 4-(3-Oxa-8-azabicyclo[3.2.1]octan-8-yl)-N-(1-cyanocyclopropyl)-9-(5-(difluoromethyl)-1,3,4-thiadiazol-2-yl)-9H-pyrimido[4,5-b]indole-7-sulfonamide], the IC50 in assay [1] and in assay [2] was under 100 nM in each case.
